From article PMC7587528
“Also recorded” adds a separate entry of the source. Read-outs that look alike come from different tables or passages of the source.

Assays:
[1] = test system: apo-myoglobin; conditions: in solution, ref [23], cited from earlier work
Excerpt: In solution, the bi-molecular association of the heme group to apo-myoglobin is thought to follow a bimodal process. Association of heme to (partially unfolded) apo-myoglobin is fast (kA ~10^8 M^−^1·s^−^1), followed by a slower structural re-arrangement (k ~500 s^−^1) to generate natively-folded holo-myoglobin (at pH 7) in which the iron atom of the heme group is then primarily coordinated by His93 [23]. Accordingly, in-solution affinity of at least partially unfolded apo-myoglobin to the heme prosthetic group has been characterized as rather strong and the complex consisting of both compone ...

[2] = test system: antiFLAG M2 antibody
[3] = test system: antiTroponin I antibody [MF4]; test: ITEM-TWO nanoESI-MS collision induced dissociation: Troponin I peptide-antiTroponin I antibody complex (gas phase); assay type: binding
Excerpt: At last, we performed ITEM-TWO experiments with an epitope peptide that was derived from human cardiac Troponin I (Tn I) against which was directed a monoclonal antiTroponin I antibody (antiTn I). Generation of the immune complex in solution and subsequent electrospraying of the entire mixture started data acquisition with the respective instrument settings as mentioned (for details see Methods section). […] Again, upon raising the collision cell voltage difference there appeared isotopically resolved ions in the low m/z range of the mass spectrum for the Troponin I epitope peptide (see insert in Figure 7) which were recorded with high mass accuracy (7 ppm).
Again, plotting norm (educts) vs. ΔCV produced a sigmoidal shaped course which represented the dependence of educt intensity on ΔCV following Boltzmann characteristics (Supplemental Figure S7). The y-axis values on the tangent line, i.e., norm (educts) , enabled to calculate ln kmg# values. […] This Arrhenius plot again provided lnA (pre-exponential factor) as the intercept with the y-axis and − ΔGmg#/R as the slope of the line (Supplemental Figure S8). In the same manner as described above, the value for km0g# was calculated. Similarly, by applying the Eyring-Polanyi equation KD m0g# was determined.
The human cardiac Troponin I epitope peptide (ENREVGDWRKNIDAL; peptides&elephants, Hennigsdorf, Germany) was obtained as lyophilized powder. The peptide was dissolved in 200 mM ammonium acetate buffer, pH 7, to obtain a peptide concentration of 1.31 µg/µL. The antiTroponin I antibody [MF4] (product code ab38210; Abcam, Cambridge, UK) was obtained dissolved in PBS buffer, pH 7.4. […] Then 200 mM ammonium acetate buffer, pH 7, were added to reach a volume of 500 µL. The solution was centrifuged at 13,000 rpm for 10 min. The filtrate was discarded. To the retentate on the filter (ca. 30 µL) 470 µL of 200 mM ammonium acetate buffer, pH 7, were added to reach a total volume of 500 µL. The solution was centrifuged again. This centrifugation/re-filling procedure was repeated eight times. After the last spinning, the filter unit was inverted into a new vial and was centrifuged at 4500 rpm for 5 min to collect the retentate (52 µL). Protein concentration was determined to be 0.33 µg/µL using the Qubit^TM 2.0 Fluorometer (Carlsbad, CA, USA) assay. […] The immune complex-containing mixture was incubated at room temperature for at least 1 h. For each measurement, 3 µL of antibody-peptide complex-containing solution were loaded into nanoESI capillaries using a microloader pipette tip (Eppendorf, Hamburg, Germany).
The m/z axis was calibrated using 1 mg/mL sodium iodide dissolved in an isopropanol/water solution (50:50, v/v). […]

[4] = test system: holo-myoglobin; conditions: gas phase, ref [19], cited from earlier work
Excerpt: In that investigation, heme dissociation kinetics was studied (i) by spraying solutions with pH 5 and (ii) by looking at selected charge state pairs (e.g., 8+ protonated holo-myoglobin and 7+ charged apo-myoglobin). Activation energies ranged from 73 kJ/mol to 106 ...

[5] = test system: holo-myoglobin (apo-myoglobin—heme complex); test: ITEM-TWO nanoESI-MS collision induced dissociation: heme loss from holo-myoglobin (gas phase); assay type: binding
Description: The mass spectral data obtained from electrospraying myoglobin (the holo-myoglobin complex consists of apo-myoglobin plus heme) were collected by following the ITEM-TWO protocol (see Methods section for in-solution handling and data acquisition steps). The ESI mass spectrum of myoglobin (Figure 4) provides an ion series of multiply charged ions from which a mean charge state of 8.1+ and an average mass of 17,566.95 ± 0.46 Da is calculated for holo-myoglobin. After having electrosprayed the myoglobin solution, and upon having switched on the collision gas and having increased the collision cell voltage difference ( ΔCV ) in a step-wise manner (5–20 V/step), dissociation of holo-myoglobin complexes caused appearance of complex-released heme ions (ligands) in the low mass ranges of the mass spectra (Supplemental Table S1). […] The m/z value of the ion that appeared in the low mass range ([heme]+) was 616.21 and corresponded precisely to the calculated values for singly protonated [heme]+ (m/z 616.18), resulting in a mass accuracy of 48 ppm.
Mean charge states of holo-myoglobin ions (m+), apo-myoglobin (n+) and heme (p+) as well as apex heights (holo-myoglobin ions (h, educts), heme ions (i, product), and apo-myoglobin ions (j, product) were extracted (Supplemental Table S2) from the triplicate measurements, averaged and normalized. For each ΔCV setting one spectrum was generated (Figure 4) and analyzed semi-quantitatively by determining Gaussian fits for all molecular/supra-molecular ion species.
All the y-values from the tangent line of the steep decline that fall within the 2dx interval around ΔCV50 are used for the calculation of ln kmg# values which are then used in the Arrhenius plot (Supplemental Figure S2). […] Then, ΔGm0g# is calculated using the van´t Hoff equation (Table 1).
A stock solution was first prepared by dissolving 5.22 mg of myoglobin (lot # 60K7007, Sigma-Aldrich, Steinheim, Germany) in 1 mL of 200 mM ammonium acetate. […] The concentration of the resulting solution was determined to be 0.5 µg/µL using a QubitTM 2.0 Fluorometer (Carlsbad, California, USA). […]

[6] = "neutral and resting" complex, gas phase, Arrhenius extrapolation to 298 K (ΔCV = 0)

Molecule: C=CC1=C(C)c2cc3[n-]c(cc4[n-]c(cc5nc(cc1n2)C(C)=C5C=C)c(C)c4CCC(=O)O)c(CCC(=O)O)c3C.[Fe+2] [heme]
- k of slower structural re-arrangement to natively-folded holo-myoglobin ([1]; pH 7): ~ 500 s^−^1
- kA association of heme to (partially unfolded) apo-myoglobin [1]: ~ 10^8 M^−^1·s^−^1

Molecule: DYKDDDDK [FLAG]
- km0g# apparent rate constant of dissociation [2, 6]: 7.9 × 10 ^10 1/s
- ∆CV50 ([2]; collision cell voltage difference at center of Boltzmann fit of normalized educt intensity, peptide to antibody 2.2:1, 200 mM ammonium acetate pH 7, three determinations): 89.0 V
- dx ([2]; half of x-axis interval (2dx) of steepest educt decline in Boltzmann fit, three determinations): 19.8 V
- binding stoichiometry, peptides bound per antibody ([2]; high mass range ion triplets, charge states 21+ to 27+, mixture of seven peptides, listed as FLAG peptide): one bound FLAG peptide; also recorded: two bound FLAG peptides
- peptide released from antiFLAG antibody complex (epitope identification) ([2]; mixture of seven peptides with antiFLAG antibody, 200 mM ammonium acetate pH 7, raised collision cell voltage): only released the FLAG peptide

Molecule: ENREVGDWRKNIDAL [troponin I, peptides&elephants)]
- km0g# apparent rate constant of dissociation [3, 6]: 2.2 × 10 ^12 1/s
- ∆CV50 ([3]; collision cell voltage difference at center of Boltzmann fit of normalized educt intensity, Synapt G2S, peptide to antibody 2.2:1, 200 mM ammonium acetate pH 7, two determinations): 26.4 V
- dx ([3]; half of x-axis interval (2dx) of steepest educt decline in Boltzmann fit, Synapt G2S, two determinations): 15.9 V
- binding stoichiometry, peptides bound per antibody ([3]; high mass range ion triplets, charge states 23+ to 28+, listed as Troponin I epitope peptide): one bound Troponin I epitope peptide; also recorded: two bound Troponin I epitope peptides

B1: myoglobin: holo-myoglobin complex consists of apo-myoglobin plus heme; lot # 60K7007, Sigma-Aldrich (protein, UniProt P68082 2-154, looked up)
Myoglobin: GLSDGEWQQVLNVWGKVEADIAGHGQEVLIRLFTGHPETLEKFDKFKHLKTEAEMKASEDLKKHGTVVLTALGGILKKKGHHEAELKPLAQSHATKHKIPIKYLEFISDAIIHVLHSKHPGDFGADAQGAMTKALELFRNDIAAKYKELGFQG
modifications: heme
notes: holo-myoglobin complex consists of apo-myoglobin plus heme; lot # 60K7007, Sigma-Aldrich
- activation energy for heme dissociation ([4]; 9+ protonated holo-myoglobin): 22 kcal/mol
- activation energy for heme dissociation ([4]; 10+ protonated holo-myoglobin): 20.3 kcal/mol
- km0g# apparent rate constant of dissociation [5, 6]: 5.1 × 10 ^9 1/s
- ∆CV50 ([5]; collision cell voltage difference at center of Boltzmann fit of normalized educt intensity, Q-TOF 2, 200 mM ammonium acetate pH 7, triplicate): 44.0 V
- dx ([5]; half of x-axis interval (2dx) of steepest educt decline in Boltzmann fit, Q-TOF 2, triplicate): 8.5 V
